# Columns and labels:
# Type in all cases: cell-based
# TNFα mRNA = TNFα mRNA expression in LPS-stimulated mouse bone marrow derived macrophages (real-time PCR); conditions: LPS (1 μg/ml) stimulated mouse BMDM; 1 μM Compound M1 vs 1 μM dasatinib (FIG. 2A)
# Procedure: (§1) Assay 2: Evaluation of mRNA Expression Levels of IL-10, TNFα, and Arginase-1 in LPS-Stimulated (1 μg/ml) Mouse Bone Marrow Derived Macrophages (BMDM).
# (§2) Mouse-Bone Marrow Cell Isolation
# (§3) • Femur bones from healthy mice were collected taking all aseptic precautions. • Bones were severed proximal to each joint using sterile scissors. • A 10 ml syringe with 25-G needle was filled with cold sterile wash medium (DMEM/F12 medium+10% FBS (fetal bovine serum)+1% Penicillin-streptomycin). • The needle was inserted into bone marrow cavity of femur and the cavity was flushed with 2-5 mL of wash medium, until the bone cavity appeared white. • Wash medium was collected in a 50 mL tube and centrifuged at 500×g for 10 minutes at room temperature. • Cells were resuspended in DMEM/F12 medium and cell count was taken. […]
# (§4) Fold change in the mRNA expression was calculated by 2^−ΔΔCt method and data was plotted using GraphPad Prism.
# TNFα = TNFα levels in LPS-stimulated human macrophages by ELISA; conditions: LPS (1 μg/mL) stimulated human macrophages, supernatant after 4 hours
# Procedure: Assay 3: TNFα Levels in LPS-Stimulated (1 μg/ml) Human Macrophages Following Treatment with Compound M1 was Estimated by ELISA.
# Isolation of Human PBMCs (Peripheral Blood Mononuclear Cells)
# The second layer from the top, the buffy coat, was collected carefully with a serological pipette and placed in a new 50 ml centrifuge tube. The volume was made up to 50 mL with 1×PBS and centrifuged at 250×g for 10 min at room temperature. • The supernatant was discarded and red blood cells (RBCs) were resuspended with 5 mL ACK lysis buffer to facilitate RBC lysis and left at room temperature for 5 min. The tube was filled up with 1×PBS and centrifuged at 250×g for 10 min at room temperature. • The supernatant was discarded and the pellet was re-suspended in 5 mL of RPMI complete media. • Cells were counted on a haemocytometer. […] Assay Protocol • Cells were scraped and centrifuged at 250×g for 8 mins and cell concentration was determined. • 0.2×10^6 human macrophages were plated/well in a 96-well plate in RPMI CM with 50 ng/mL of Human M-CSF-1 and incubated overnight at 37° C. and 5% CO2. • Human macrophages were treated with compound M1 for 1 hour followed by addition of LPS (1 μg/mL).
# Fold change was calculated, and graphs were plotted using GraphPad Prism. TNFα cytokine levels measured in LPS stimulated human macrophages supernatants were reduced by 75% following treatment with compound M1.
# mouse IL-10 mRNA = assay: IL-10 mRNA expression in LPS-stimulated mouse bone marrow derived macrophages (real-time PCR); conditions: LPS (1 μg/ml) stimulated mouse BMDM; 1 μM Compound M1 vs 1 μM dasatinib (FIG. 2C)
# Procedure: as §1, §2, §3, §4
# MCF-7 cell lines = assay: MTT cell growth inhibition, combination with taxol, MCF-7; conditions: combined with taxol, 72 hrs
# Procedure: Assay 6: Combination of Compound M1 with Standard Agents in Different Cell Lines
# Day 0 • The cells were pelleted and counted. • Cells were plated at desired density (100 μl/well) in complete media in a 96-well plate in triplicates. A column for Day “0” reading was also seeded. (18-20 hrs after initial plating and before addition of the inhibitors) • Plates were incubated at 37° C. and 5% CO2. Day 1 • 10 μl of MTT (5 mg/ml) were added to the column designated for Day “0”. It was mixed well and incubated at 37° C. and 5% CO2 for 3.5 h. Cells were pelleted down at 4000 rpm for 10 minutes. • Media was aspirated out and 150 μl of DMSO were added to the cells and mixed by pipetting to dissolve the crystals • The plate was read at A560 nm and A640 nm. Day 2 • A series of dilutions of the inhibitors were initially made in 100% DMSO and further diluted in growth medium. • Cells were treated with either single agent of DMSO, compound M1, taxol, and a combination of compound M1 and taxol (MDA-MB-231, MCF-7, ZR.75.1 and SK-OV-3). […] Crystals were dissolved by repeated pipetting. • The plate was read at A560 nm and A640 nm. […]
# Reference absorbance values were subtracted from test absorbance values. Day 0 values were subtracted from final day absorbance values for determining cell growth. % Cell growth inhibitions were calculated.
smiles,measurement,setting,value
"CC[C@H](Nc1ncnc2[nH]c(O)nc12)c1oc2ccccc2c(=O)c1-c1cccc(F)c1 [Compound M1, (S)-3-(3-fluorophenyl)-2-(1-((8-hydroxy-9H-purin-6-yl)amino)propyl)-4H-chromen-4-one]","TNFα mRNA expression, potency relative to dasatinib",TNFα mRNA,more potent than dasatinib
same,reduction of TNFα cytokine levels in supernatants,TNFα,75%
same,"mouse IL-10 mRNA expression, potency relative to dasatinib",mouse IL-10 mRNA,equally potent as dasatinib
same,cell growth inhibition in combination,MCF-7 cell lines,synergistic results

# From patent US12428422B2, “Purine derivatives as SIK-3 inhibitors” (RHIZEN PHARMACEUTICALS AG, priority 2020, dated 2025)
